Data published in patent US20110182982A1, “LIPOSOME TREATMENT OF VIRAL INFECTIONS” (University of Oxford, priority 2006, published 2011).

How the values were obtained:
[1] = test system: CHO cells; assay: Liposome uptake (Rh-PE) and intracellular calcein dequenching; assay type: cell-based, Chinese hamster
Method: The effects of different DNJ compounds on the cellular uptake and intracellular release, when encapsulated inside DCPP liposomes, was determined by diluting compounds in 80-mM calcein and incorporating Rh-PE in liposome membranes as previously described, with the final liposome composition being DOPE:CHEMS:PEG-PE:Rh-PE (DCPP-Rh, 6:4:0.3:0.1) Liposomes encapsulating calcein alone, 10-μM DNJ, 1-mM DNJ, 10-μM NB-DNJ, 1-mM NB-DNJ, 10-μM NN-DNJ, or 1-mM NN-DNJ, were incubated with CHO cells for 45 min before liposomes were removed and cells were washed twice in 1×PBS. Cells were then analyzed in a fluorometer to measure calcein dequenching (λex=490 and λem=520 nm) and rhodamine fluorescence (λex=584 and λem=612 nm). Data represent the mean±S.D. obtained from triplicates of four independent experiments, where mean rhodamine fluorescence values reflect the binding and uptake of liposomes and the mean calcein fluorescence reflects the intracellular dequenching of the dye (i.e. dye released from liposomes into intracellular compartments). Results are expressed as the percent fluorescence measured following incubation with DNJ-containing liposomes as compared to the calcein/PBS-only liposome control (=100% on the x axis).
The calculated ratio of calcein to rhodamine fluorescence is taken as a measure of the amount of aqueous marker released per cell-associated liposome, and represents the efficiency of intracellular delivery.

[2] = test system: ER glucosidases I and II; assay: Free oligosaccharide (FOS) analysis as marker of glucosidase inhibition; assay type: cell-based, Chinese hamster
Text: Free oligosaccharides (FOS) produced in the presence of free or DCPP liposomes encapsulating NB-DNJ are characterized and used as a cellular marker for glucosidase inhibition to measure the enhancement of drug activity due to intracellular delivery. […] In this experiment, the distribution of glucosylated FOS is used as a measure of glucosidase inhibition by NB-DNJ, where Glc1Mann-FOS and Glc2Mann-FOS species are a result of glucosidase II inhibition, and Glc3Mann-FOS a result of glucosidase I inhibition.
CHO cells were incubated in the presence of free NB-DNJ at the antiviral concentration of 0.5 mM, or with 100 μM of DCPP liposomes encapsulating NB-DNJ at final concentrations ranging 0-75 nM. Cells were left to incubate for 5 days and isolation of FOS was performed using cell homogenates standardized to 500 μg of total protein as described by Mellor et al (2004). Biochem J. 2004 Aug. 1; 381 (Pt 3): 861-866. Detection of FOS was performed by normal-phase HPLC following labeling of oligosaccharides by 2-aminobenzamide. The compositions of FOS were further characterized and determined by digestions with glycosidases including endoglycosidase H, jack bean α-mannosidase, and α-glucosidases I and II. The percentage of non-glucosylated and glucosylated oligomannose FOS (represented by Mann-FOS, Glc1Mann-FOS, Glc2Mann-FOS, and Glc3Mann-FOS) was calculated for each sample, and results are represented in Table 2. Results represent the mean±S.D. of four separate experiments.

[3] = test system: HIV-1 primary isolates; assay: p24 secretion of HIV-1-infected PBMCs, eight primary isolates; assay type: cell-based
Method: Clearance of HIV-1 primary isolates from infected human cells by NB-DNJ was assessed using phytohemagglutinin (PHA)-activated peripheral blood mononuclear cells (PBMCs) as indicator cells and the determination of p24 antigen production as the end point.
PBMCs from four normal (uninfected) donors were isolated, pooled, and stimulated with PHA (5 μg/ml) for 48 h followed by PHA plus interleukin-2 (40 U/ml) for 72 h in RPMI 1640 medium containing 10% heat-inactivated fetal bovine serum (FBS), 100 U of penicillin per ml, 100 μg of streptomycin per ml, and 2 mM L-glutamine. All experiments were performed in 96-well microtiter plates. To infect cells, 100 μl of PHA-activated PBMCs (5×10^5/ml) was added to each well, after which an equal volume containing 100 50% tissue culture infective doses (TCID50) of primary isolate stock was added. After an overnight incubation, the cells were washed three times with tissue culture medium, and finally re-suspended in medium containing the appropriate liposome treatment or free NB-DNJ. On day 7, approximately 10-30% of the culture volume containing secreted HIV-1 virions was used to infect naïve PBMCs for a second round of infection and treatment (volume transferred was calculated to be the volume necessary for the untreated control of that isolate to infect naïve cells at a TCID50=100). Rounds of treatment and infection of naïve cells were continued over four weeks, and at every time point cellular supernatant containing secreted virions was isolated and used in capture ELISAs to determine p24 concentration (measure of secretion). Additionally, supernatant isolated at each time point throughout treatment was used to infect naïve PBMCs (TCID50=100) for two weeks with no further treatment, which allowed for the observation of a rebound in viral activity.
PBMCs infected with 8 primary isolates (listed in Table 3) were incubated in the presence of free NB-DNJ (concentrations ranging 0-1 mM) or liposome-encapsulated NB-DNJ (0-3.75 μM, final lipid concentration of 50 μM).

[4] = Human immunodeficiency virus 1, PBMC, free, three rounds of treatment, six isolates

CCCCN1C[C@H](O)[C@@H](O)[C@H](O)[C@H]1CO [NB-DNJ, N-butyl-1,5-dideoxy-1,5-imino-D-glucitol]
Efficiency (calcein/rhodamine, AU) ([1]; 10 μM encapsulated in DCPP liposomes): 21.7 ± 1.5 AU | increase of efficiency of intracellular delivery ([1]; 10 μM in DCPP liposomes): approximately 2 fold | Efficiency (calcein/rhodamine, AU) ([1]; 1 mM encapsulated in DCPP liposomes): 28.4 ± 2.4 AU | increase of efficiency of intracellular delivery ([1]; 1 mM in DCPP liposomes): ~3 fold | increase in dequenched calcein ([1]; 1-mM formulation in DCPP-Rh liposomes): ~2.3 fold | increase in dequenched calcein ([1]; 10-μM formulation in DCPP-Rh liposomes): ~1.8 fold | Distribution of total FOS Glc0Mann ([2]; 0.75 pM in liposomes): 70.7 ± 5.4% | Distribution of total FOS Glc1Mann ([2]; 0.75 pM in liposomes): 18.7 ± 3.7% | Distribution of total FOS Glc2Mann ([2]; 0.75 pM in liposomes): 7.7 ± 1.1% | Distribution of total FOS Glc3Mann ([2]; 0.75 pM in liposomes): 2.9 ± 0.9% | Distribution of total FOS Glc0Mann ([2]; 7.5 pM in liposomes): 70.4 ± 4.2% | Distribution of total FOS Glc1Mann ([2]; 7.5 pM in liposomes): 17.7 ± 1.3% | Distribution of total FOS Glc2Mann ([2]; 7.5 pM in liposomes): 8.3 ± 2.1% | Distribution of total FOS Glc3Mann ([2]; 7.5 pM in liposomes): 3.6 ± 1.3% | Distribution of total FOS Glc0Mann ([2]; 75 pM in liposomes): 51.7 ± 4.7% | Distribution of total FOS Glc1Mann ([2]; 75 pM in liposomes): 38.6 ± 4.1% | Distribution of total FOS Glc2Mann ([2]; 75 pM in liposomes): 5.3 ± 1.8% | Distribution of total FOS Glc3Mann ([2]; 75 pM in liposomes): 4.4 ± 2.8% | Distribution of total FOS Glc0Mann ([2]; 0.75 nM in liposomes): 20.4 ± 2.7% | Distribution of total FOS Glc1Mann ([2]; 0.75 nM in liposomes): 66.9 ± 5.1% | Distribution of total FOS Glc2Mann ([2]; 0.75 nM in liposomes): 7.4 ± 3.3% | Distribution of total FOS Glc3Mann ([2]; 0.75 nM in liposomes): 5.3 ± 2.9% | Distribution of total FOS Glc0Mann ([2]; 7.5 nM in liposomes): 12.7 ± 2.6% | Distribution of total FOS Glc1Mann ([2]; 7.5 nM in liposomes): 50.0 ± 4.8% | Distribution of total FOS Glc2Mann ([2]; 7.5 nM in liposomes): 28.6 ± 2.7% | Distribution of total FOS Glc3Mann ([2]; 7.5 nM in liposomes): 8.7 ± 1.7% | Distribution of total FOS Glc0Mann ([2]; 75 nM in liposomes): 13.2 ± 4.1% | Distribution of total FOS Glc1Mann ([2]; 75 nM in liposomes): 7.9 ± 2.8% | Distribution of total FOS Glc2Mann ([2]; 75 nM in liposomes): 26.6 ± 4.5% | Distribution of total FOS Glc3Mann ([2]; 75 nM in liposomes): 52.3 ± 6.2% | Distribution of total FOS Glc0Mann ([2]; 0.5 mM free): 11.9 ± 1.9% | Distribution of total FOS Glc1Mann ([2]; 0.5 mM free): 9.5 ± 0.9% | Distribution of total FOS Glc2Mann ([2]; 0.5 mM free): 31.7 ± 4.5% | Distribution of total FOS Glc3Mann ([2]; 0.5 mM free): 46.9 ± 4.8% | reduction in viral secretion ([3]; 1 mM free in medium, first week, most isolates): 30-40% | enhancement of antiviral activity, liposome vs free ([3]; DOPE:CHEMS:PEG-PE liposomes): 10^4-10^5 fold | IC50 [3, 4]: 400 µM | IC90 [3, 4]: 500 µM | final NB-DNJ concentration with antiviral activity similar to 500 μM free ([3]; encapsulated in DOPE:CHEMS:PEG-PE liposomes, all isolates): 3.75 to 37.5 nM | reduction in viral activity ([3]; free, all isolates): ≥ 90% | antiviral concentration (lowest to clear viral activity in all isolates) ([3]; free, four weeks treatment): 500 µM
